{"source": "patent US20090298707A1", "about": "“SPARSE MATRIX SYSTEM AND METHOD FOR IDENTIFICATION OF SPECIFIC LIGANDS OR TARGETS” (priority 2008, published 2009)", "key": {"[1]": {"system": "M. luteus MS2", "assay": "Pulldown binding assay, Langmuir isotherm fit, M. luteus", "parameters": "species or system Micrococcus luteus", "conditions": "for Langmuir Affinity (Ka): association constant from Langmuir isotherm fit; for Monolayer Concentration (N): maximum surface concentration from Langmuir fit", "excerpt": "(§1) To investigate whether the changes in the observed level of binding were due to changes in the affinities or avidities of the refined peptides for cell surfaces, binding curves were generated for selected peptides and fit to the Langmuir isotherm (where possible), the simplest model describing binding to surfaces (peptides showing either complex or nonspecific binding isotherms were excluded from this analysis).\n(§2) Measurements were taken of the absorbance of the labeled peptide at 488 nm (the peak absorbance of the fluorescein label) before and after exposure to the cells. The amount of peptide bound was calculated by comparing the ratio of the final (Af) and initial (Ai) absorbances to the initial concentration (C0)[Cbound=C0(1−(Af/Ai))]. Bacterial surface area per sample was calculated using a stage micrometer to determine the average cell diameter for each species (1.0+/−0.1 μm for S. aureus AM1, 2.7+/−0.1 μm for M. luteus MS2), treating individual cells as discrete spheres. Average cell concentration per unit OD600 was calculated using a hemocytometer.\n(§3) Plots were then generated of the amount of peptide bound per m^2 of bacterial surface area vs. the concentration of unbound peptide at equilibrium. Where possible, the resulting isotherms were fit to the Langmuir isotherm (P/A=(KaNCeq)/(1+KaCeq), where P/A represents the molar amount of peptide bound per unit of bacterial surface area, Ka is the association constant of the peptide with the bacterial surface (L/Mol), N is the maximum surface concentration (mol/m^2), and Ceq is the molar concentration of unbound peptide at equilibrium) (Calis et al. (1995) Pharm Res 12(7): 1072-1076). Data plots and curvefits were obtained using Kaleidagraph (Synergy Software)."}, "[2]": {"system": "immobilized S. aureus cells", "assay": "Fluorescence microscopy binding of labeled peptides to immobilized bacteria, S. aureus", "parameters": "species or system Staphylococcus aureus", "conditions": "for Binding to S. aureus (fluorescent staining): 25 μM fluorescein-labeled peptide, 10 minutes, immobilized cells", "procedure": "(§4) Peptide samples were prepared at a concentration of 25 μM for screening against a variety of organisms by exposing immobilized bacteria to labeled peptides. For bacterial cell binding assays, cells were grown overnight, washed, and immobilized in a polylysine-coated 96-well plate. Fluorescein-labeled peptide samples were applied to immobilized bacteria, incubated for 10 minutes and washed extensively to remove unbound peptide. Samples were visualized by fluorescence microscopy. For each peptide, both brightfield and fluorescence images were collected, and camera and microscope settings were not altered between images. The locations of cells and background regions were determined using the brightfield images; those regions were then selected in the fluorescence images for quantitation of pixel values for determination of relative fluorescence intensities (represented as bacterial fluorescence/background fluorescence) using the GNU Image Manipulation Program (The GIMP, see, e.g., www.gimp.org).\nThe following bacterial species and strains were used: Lactobacillus casei (strain), Escherichia coli (W3110), Enterococcus faecium (strain), Streptococcus mutans (UA140), Streptococcus mitis (ATCC 903), Streptococcus gordonii (NY101), Pseudomonas aeruginosa(strain K), Klebsiella pneumoniae (KAY2026), Myxococcus xanthus (Strains DK1622, wildtype, and difA, exopolysaccharide deficient^21), Micrococcus luteus (strain MS2, a community isolate), Staphylococcus epidermidis (strain), and Staphylococcus aureus(strains, and AM1, a methicillin/oxacillin-resistant community isolate).\nFor isolation of community-acquired S. aureus and M. luteus strains (strains MS2 and AM1), swabs were collected from the nostrils of several volunteers and streaked on Brain-Heart Infusion (BHI) agar and incubated at 37° C. overnight. Yellow colonies were isolated and typed (Microbial ID, Inc., Newark, Del.). Antibiotic resistance was assayed by plating on BHI in the presence of various antibiotics. Commercially available antibiotic susceptibility test disks were used to assay for oxacillin resistance (BD Biosciences), according to the manufacturer's instructions. Due to the difficulty of obtaining methicillin, oxacillin resistance was used as a proxy for methicillin resistance in isolated strains.^22\nThe peptides comprising these two refined libraries were synthesized, labeled, and screened against immobilized S. aureus cells exactly as for the original pilot library.\n(§5) To examine the specificities of the peptides identified in this experiment, a diverse panel of various strains of bacteria was assembled, consisting of Lactobacillus casei, Escherichia coli, Enterococcus faecalis, Streptococcus mutans, Streptococcus mitis, Streptococcus gordonii, Pseudomonas aeruginosa, Klebsiella pneumoniae, Micrococcus luteus (strain MS2), Staphylococcus epidermidis, and two strains of Staphylococcus aureus: a methicillin/oxacillin-sensitive community isolate and our methicillin/oxacillin-resistant community isolate of (strain AM1). Peptides 3C and 4D from the original pilot library were screened for binding against these bacteria by fluorescence microscopy, and images were analyzed as before."}, "[3]": {"system": "M. luteus", "assay": "Fluorescence microscopy binding of labeled peptides to immobilized bacteria, M. luteus", "parameters": "species or system Micrococcus luteus", "conditions": "25 μM fluorescein-labeled peptide, immobilized cells", "procedure": "as §4, with “www.gimp.org). […]” for “www.gimp.org).”\nas §5"}, "[4]": {"system": "diverse panel of various strains of bacteria", "assay": "Specificity screen by fluorescence microscopy against a bacterial panel", "format": "binding", "conditions": "bacteria other than S. aureus and M. luteus", "procedure": "as §4, with “www.gimp.org). […]” for “www.gimp.org).”\nas §5"}, "[5]": {"system": "Candida albicans cells (strain 4741)", "assay": "Pilot library binding to Candida albicans cells", "conditions": "fluorescence image", "procedure": "as §4\n(§6) The use of this technology is not limited to bacterial surfaces."}, "[6]": {"system": "Chinese Hamster Ovary (CHO) cells", "assay": "Pilot library binding to CHO cells", "conditions": "fluorescence image", "procedure": "as §4, §6"}, "[7]": {"system": "S. aureus AM1", "assay": "Pulldown binding assay, Langmuir isotherm fit, S. aureus", "parameters": "species or system Staphylococcus aureus", "conditions": "for Langmuir Affinity (Ka): association constant from Langmuir isotherm fit, fluorescein-labeled peptide 0-100 μM; for Monolayer Concentration (N): maximum surface concentration from Langmuir fit", "excerpt": "as §1, §2, §3"}}, "note": "“Also recorded” adds a separate entry of the source.", "data": [{"substance": "In-plane refinement 1B: in-plane refined library peptide, SEQ ID NO:50 (IVSYVITQL; synthetic in-plane refinement library peptide B1)", "values": [{"measurement": "Langmuir Affinity (Ka)", "setting": "[1]", "value": "2.4 ± 0.8", "unit": "M^−1 × 10000"}, {"measurement": "Monolayer Concentration (N)", "setting": "[1]", "value": "0.11 ± 0.02", "unit": "Mol/m^2 × 0.0001"}, {"measurement": "Binding to S. aureus (fluorescent staining)", "setting": "[2]", "value": "strongest binding"}, {"measurement": "Binding to immobilized S. aureus relative to peptides of the original pilot library", "setting": "[2]; refined libraries, fluorescence images", "value": "enhanced binding"}, {"measurement": "Binding to M. luteus (fluorescent staining)", "setting": "[3]", "value": "strongest binding"}, {"measurement": "Binding to the other bacteria of the panel", "setting": "[4]", "value": "no significant binding"}]}, {"substance": "Pilot Library 3A: pilot library 9-mer, SEQ ID NO:11 (WWSYWWTQW; synthetic pilot library peptide A3)", "values": [{"measurement": "Binding to C. albicans", "setting": "[5]", "value": "binding"}, {"measurement": "Binding to CHO cells", "setting": "[6]", "value": "binding"}]}, {"substance": "Pilot Library 3C: pilot library 9-mer, SEQ ID NO:23; became A1 of the in-plane matrix (SEQ ID NO:46) (LISYILTQL; synthetic pilot library peptide C3)", "values": [{"measurement": "Langmuir Affinity (Ka)", "setting": "[7]", "value": "5.6 ± 0.9", "unit": "M^−1 × 10000"}, {"measurement": "Monolayer Concentration (N)", "setting": "[7]", "value": "0.31 ± 0.2", "unit": "Mol/m^2 × 0.0001"}, {"measurement": "Langmuir Affinity (Ka)", "setting": "[1]", "value": "4 ± 1", "unit": "M^−1 × 10000"}, {"measurement": "Monolayer Concentration (N)", "setting": "[1]", "value": "0.12 ± 0.02", "unit": "Mol/m^2 × 0.0001"}, {"measurement": "Binding to S. aureus (fluorescent staining)", "setting": "[2]", "value": "Binding was clearly seen; also recorded: binds well"}, {"measurement": "Binding to S. aureus (fluorescent staining)", "setting": "[2]; listed as Pilot Library C3", "value": "some of the brightest unique staining"}, {"measurement": "Binding to M. luteus (fluorescent staining)", "setting": "[3]", "value": "Binding was clearly seen; also recorded: binds well"}, {"measurement": "Binding to the other bacteria of the panel", "setting": "[4]", "value": "significant levels of binding to several of the other bacteria tested; also recorded: significant binding to several strains"}]}, {"substance": "Pilot Library 4D: pilot library 9-mer, SEQ ID NO:30; corner of the in-plane matrix (SEQ ID NO:61) (VAKDVAERV; synthetic pilot library peptide D4)", "values": [{"measurement": "Langmuir Affinity (Ka)", "setting": "[7]", "value": "5 ± 3", "unit": "M^−1 × 10000"}, {"measurement": "Monolayer Concentration (N)", "setting": "[7]", "value": "0.12 ± 0.3", "unit": "Mol/m^2 × 0.0001"}, {"measurement": "Langmuir Affinity (Ka)", "setting": "[1]", "value": "5 ± 2", "unit": "M^−1 × 10000"}, {"measurement": "Monolayer Concentration (N)", "setting": "[1]", "value": "0.16 ± 0.02", "unit": "Mol/m^2 × 0.0001"}, {"measurement": "Binding to S. aureus (fluorescent staining)", "setting": "[2]", "value": "Binding was clearly seen"}, {"measurement": "Binding to S. aureus (fluorescent staining)", "setting": "[2]; listed as Pilot Library D4", "value": "some of the brightest unique staining"}, {"measurement": "Binding to M. luteus (fluorescent staining)", "setting": "[3]", "value": "Binding was clearly seen"}, {"measurement": "Binding to the other bacteria of the panel", "setting": "[4]", "value": "significant levels of binding to several of the other bacteria tested; also recorded: significant binding to several strains"}]}]}
